For the assay, the target named is T1, Recombinant human renin (Homo sapiens, UniProt P00797).
T1 construct: isolate the active form (residues 67-406); made in house; host or cells: FreeStyle 293-F cells, transient expression of pcDNA3.1(+)/hREN
T1 sequence (P00797 67-406): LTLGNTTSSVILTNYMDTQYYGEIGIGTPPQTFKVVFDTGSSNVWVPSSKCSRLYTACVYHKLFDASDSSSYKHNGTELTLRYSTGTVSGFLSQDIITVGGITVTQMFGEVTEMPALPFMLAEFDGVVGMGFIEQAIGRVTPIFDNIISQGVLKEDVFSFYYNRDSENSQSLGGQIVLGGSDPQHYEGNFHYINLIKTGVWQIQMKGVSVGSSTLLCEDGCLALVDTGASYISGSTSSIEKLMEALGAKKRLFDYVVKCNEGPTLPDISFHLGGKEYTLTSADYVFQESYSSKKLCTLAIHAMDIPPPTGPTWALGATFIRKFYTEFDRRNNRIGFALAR
Description: In vitro enzymatic activity assay of renin inhibitors (fluorescence, QXL520/HiLyteFluo488 peptide substrate). In kind it is biochemical. The conditions noted are these: recombinant human renin 3 nM, 1 μM substrate, pre-incubated 10 minutes at 37° C., incubation one hour, pH 7.4, 5% DMSO; read-out: IC50 of Exemplified Compounds Against Renin.

The IC50 is the midpoint of a concentration-inhibition curve. As to `COCCCOc1cccc(-n2c(-c3ccccc3)c(C(=O)N3CCNCC3)n(Cc3cccc(Oc4ccccc4)c3)c2=O)c1` [Example 13, 1-(3-(3-methoxypropoxy)phenyl)-3-(3-phenoxybenzyl)-5-phenyl-4-(piperazine-1-carbonyl)-1H-imidazol-2(3H)-one], the concentration for half-maximal inhibition (IC50) is more than 1000 nM.
To `COc1cc(-c2cc(Cn3c(C(=O)N4CCNCC4)c(-c4ccccc4)n(C4CCCCC4)c3=O)cc(-c3ccnc(OC)c3)n2)ccn1` [Example 17E, 1-Cyclohexyl-3-((2,6-di(2-methoxyl-pyridine-4-yl)pyridin-4-yl)methyl)-5-phenyl-4-(piperazine-1-carbonyl)-1H-imidazol-2(3H)-one] belongs 100 to 500 nM; to `COc1ccc(-c2cc(Cn3c(C(=O)N4CCNCC4)c(-c4ccccc4)n(C4CCCCC4)c3=O)ccn2)cn1` [Example 17F, 1-Cyclohexyl-3-((6′-methoxy-2,3′-bipyridin-4-yl)methyl)-5-phenyl-4-(piperazine-1-carbonyl)-1H-imidazol-2(3H)-one], 100 to 500 nM.
As to `COc1ccc(-c2cc(Cn3c(C(=O)N4CCNCC4)c(-c4ccccc4)n(C4CCCCC4)c3=O)cc(N(C)C)n2)cn1` [Example 17H, 1-cyclohexyl-3-((6-(dimethylamino)-6′-methoxy-2,3′-bipyridin-4-yl)methyl)-5-phenyl-4-(piperazine-1-carbonyl)-1H-imidazol-2(3H)-one], the IC50 is 100 to 500 nM.
To `CCN(CC)c1cc(Cn2c(C(=O)N3CCNCC3)c(-c3ccccc3)n(C3CCCCC3)c2=O)cc(-c2ccc(OC)nc2)n1` [Example 17J, 1-cyclohexyl-3-((6-(diethylamino)-6′-methoxy-2,3′-bipyridin-4-yl)methyl)-5-phenyl-4-(piperazine-1-carbonyl)-1H-imidazol-2(3H)-one] belongs 100 to 500 nM; to `O=C(c1[nH]c(=O)n(-c2ccccc2)c1-c1ccccc1)N1CCNCC1` [Example 18, 1,5-Diphenyl-4-(piperazine-1-carbonyl)-1H-imidazol-2(3H)-one], more than 1000 nM; to `O=C(c1[nH]c(=O)n(-c2ccccn2)c1-c1ccccc1)N1CCNCC1` [Example 19, 5-Phenyl-4-(piperazine-1-carbonyl)-1-(pyridin-2-yl)-1H-imidazol-2(3H)-one], more than 1000 nM.
On to `O=C(c1[nH]c(=O)n(-c2ccccc2)c1-c1ccccc1)N1CCNCC1CO` (stereo not drawn) [Example 20, 4-(2-(Hydroxymethyl)piperazine-1-carbonyl)-1,5-diphenyl-1H-imidazol-2(3H)-one], for which the 50% inhibitory concentration (IC50) was more than 1000 nM.
In the case of `O=C(c1[nH]c(=O)n(-c2ccccc2)c1-c1cccc(F)c1)N1CCNCC1` [Example 21, 5-(3-Fluorophenyl)-1-phenyl-4-(piperazine-1-carbonyl)-1H-imidazol-2(3H)-one] it was more than 1000 nM; in that of `O=C(c1[nH]c(=O)n(-c2cccc(N3CCOCC3)c2)c1-c1ccccc1)N1CCNCC1` [Example 22, 1-(3-Morpholinophenyl)-5-phenyl-4-(piperazine-1-carbonyl)-1H-imidazol-2(3H)-one], 500 to 1000 nM.
`CC(C)c1c(C(=O)N2CCNCC2)[nH]c(=O)n1-c1ccccc1` [Example 23, 5-Isopropyl-1-phenyl-4-(piperazine-1-carbonyl)-1H-imidazol-2(3H)-one]: the 50% inhibitory concentration (IC50) is more than 1000 nM.
In the case of `O=C(c1[nH]c(=O)n(-c2ccccc2)c1C1CC1)N1CCNCC1` [Example 24, 5-Cyclopropyl-1-phenyl-4-(piperazine-1-carbonyl)-1H-imidazol-2(3H)-one] it was more than 1000 nM; in that of `O=C(c1[nH]c(=O)n(-c2ccccc2)c1CC1CC1)N1CCNCC1` [Example 25, 5-(Cyclopropylmethyl)-1-phenyl-4-(piperazine-1-carbonyl)-1H-imidazol-2(3H)-one], more than 1000 nM; in that of `O=C(c1[nH]c(=O)n(-c2ccccc2)c1-c1ccccc1Cl)N1CCNCC1` [Example 26, 5-(2-Chlorophenyl)-1-phenyl-4-(piperazine-1-carbonyl)-1H-imidazol-2(3H)-one], more than 1000 nM.
Consider `COCCOc1cccc(Cn2c(C(=O)N3CCNCC3)c(-c3ccccc3)n(-c3ccccc3C)c2=O)c1` [Example 27, 1-(3-(2-methoxyethoxy)benzyl)-4-phenyl-5-(piperazine-1-carbonyl)-3-o-tolyl-1H-imidazol-2(3H)-one], for which the IC50 fell in the range of 100 to 500 nM.
For the molecule `O=C(c1[nH]c(=O)n(-c2ccccc2)c1-c1ccc(Cl)cc1)N1CCNCC1` [Example 28, 5-(4-Chlorophenyl)-1-phenyl-4-(piperazine-1-carbonyl)-1H-imidazol-2(3H)-one], the half-inhibitory concentration (IC50) was more than 1000 nM.
To `O=C(c1[nH]c(=O)n(C2CCCCC2)c1-c1ccccc1)N1CCNCC1` [Example 29, 1-Cyclohexyl-5-phenyl-4-(piperazine-1-carbonyl)-1H-imidazol-2(3H)-one] belongs 500 to 1000 nM; to `COCCOc1ccccc1-n1c(-c2ccccc2)c(C(=O)N2CCNCC2)[nH]c1=O` [Example 32, 1-(2-(2-Methoxyethoxy)phenyl)-5-phenyl-4-(piperazine-1-carbonyl)-1H-imidazol-2(3H)-one], more than 1000 nM.
For `COCCCOc1ccccc1-n1c(-c2ccccc2)c(C(=O)N2CCNCC2)[nH]c1=O` [Example 33, 1-(2-(3-Methoxypropoxy)phenyl)-5-phenyl-4-(piperazine-1-carbonyl)-1H-imidazol-2(3H)-one], the IC50 was more than 1000 nM.
To `COCCOc1cccc(-n2c(-c3ccccc3)c(C(=O)N3CCNCC3)[nH]c2=O)c1` [Example 34, 1-(3-(2-Methoxyethoxy)phenyl)-5-phenyl-4-(piperazine-1-carbonyl)-1H-imidazol-2(3H)-one] belongs more than 1000 nM.
As for `COCCCOc1cccc(-n2c(-c3ccccc3)c(C(=O)N3CCNCC3)[nH]c2=O)c1` [Example 35, 1-(3-(3-Methoxypropoxy)phenyl)-5-phenyl-4-(piperazine-1-carbonyl)-1H-imidazol-2(3H)-one], the IC50 lay in the range of 500 to 1000 nM.
Consider `COCCCOc1cccc(-n2c(-c3ccccc3)c(C(=O)N3CCNCC3)[nH]c2=O)n1` [Example 36, 1-(6-(3-Methoxypropoxy)pyridin-2-yl)-5-phenyl-4-(piperazine-1-carbonyl)-1H-imidazol-2(3H)-one], for which the 50% inhibitory concentration (IC50) was more than 1000 nM.
For the molecule `C[C@@H]1CN(C(=O)c2[nH]c(=O)n(C3CCCCC3)c2-c2ccccc2)CCN1` [Example 37, (R)-1-Cyclohexyl-4-(3-methylpiperazine-1-carbonyl)-5-phenyl-1H-imidazol-2(3H)-one], the IC50 was more than 1000 nM.
To `CC1CN(C(=O)c2[nH]c(=O)n(C3CCCCC3)c2-c2ccccc2)CCN1` (stereo not drawn) [Example 38, 1-Cyclohexyl-4-(3-methylpiperazine-1-carbonyl)-5-phenyl-1H-imidazol-2(3H)-one] belongs more than 1000 nM; to `C[C@H]1CN(C(=O)c2[nH]c(=O)n(C3CCCCC3)c2-c2ccccc2)CCN1` [Example 39, (S)-1-Cyclohexyl-4-(3-methylpiperazine-1-carbonyl)-5-phenyl-1H-imidazol-2(3H)-one], more than 1000 nM; to `CC1CN(C(=O)c2[nH]c(=O)n(C3CCCCC3)c2-c2ccccc2)CC(C)N1` (stereo not drawn) [Example 40, 1-Cyclohexyl-4-(3,5-dimethylpiperazine-1-carbonyl)-5-phenyl-1H-imidazol-2(3H)-one], more than 1000 nM.
Take `CC1CN(C(=O)c2[nH]c(=O)n(C3CCCCC3)c2-c2ccccc2)C(C)CN1` (stereo not drawn) [Example 41, 1-Cyclohexyl-4-(2,5-dimethylpiperazine-1-carbonyl)-5-phenyl-1H-imidazol-2(3H)-one]: the concentration for half-maximal inhibition (IC50) is more than 1000 nM.

(Values after patent publication US8148367B2 (Takeda Pharmaceutical Company Limited, priority 2008, dated 2012).)
